Assay results as given in ChEMBL document CHEMBL2417363, “Identification of quinazolinyloxy biaryl urea as a new class of SUMO activating enzyme 1 inhibitors” (Bioorg Med Chem Lett, 2013).
Active and inactive are the calls of the source. No cut-off for these calls is given here.

Assays:
[1] = biological target: T1, SUMO-activating enzyme (Homo sapiens) (UniProt Q9UBE0+Q9UBT2); assay: Inhibition of SUMO E1 (unknown origin)-biotinylated SUMO-1 thioester complex formation at 10 uM after 20 mins by SDS-PAGE analysis in presence of ATP; format: protein-complex assay
[2] = Octanol-water partition coefficient, log P of the compound; format: physicochemical
[3] = Permeability across human Caco2 cells; format: ADME, cell-based; settings: Caco-2, read-out: permeability
SUMO-activating enzyme [4] = biological target: T2, SUMO-activating enzyme (Homo sapiens, UniProt Q9UBT2); assay: Inhibition of SUMO E1 (unknown origin) assessed as SUMO E1-SUMO thioester bond formation; format: protein-complex assay
T2 sequence (Q9UBE0 whole entry): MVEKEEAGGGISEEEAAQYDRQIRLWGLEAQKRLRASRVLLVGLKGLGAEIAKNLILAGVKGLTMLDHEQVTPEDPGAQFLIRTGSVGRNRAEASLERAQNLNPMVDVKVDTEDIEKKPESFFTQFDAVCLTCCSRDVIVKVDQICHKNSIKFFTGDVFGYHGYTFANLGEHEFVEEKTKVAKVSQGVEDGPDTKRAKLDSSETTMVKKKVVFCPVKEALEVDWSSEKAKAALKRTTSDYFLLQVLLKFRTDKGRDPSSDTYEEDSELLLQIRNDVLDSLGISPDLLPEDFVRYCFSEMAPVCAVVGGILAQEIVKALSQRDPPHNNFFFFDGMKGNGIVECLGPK
T2 sequence (Q9UBT2 whole entry): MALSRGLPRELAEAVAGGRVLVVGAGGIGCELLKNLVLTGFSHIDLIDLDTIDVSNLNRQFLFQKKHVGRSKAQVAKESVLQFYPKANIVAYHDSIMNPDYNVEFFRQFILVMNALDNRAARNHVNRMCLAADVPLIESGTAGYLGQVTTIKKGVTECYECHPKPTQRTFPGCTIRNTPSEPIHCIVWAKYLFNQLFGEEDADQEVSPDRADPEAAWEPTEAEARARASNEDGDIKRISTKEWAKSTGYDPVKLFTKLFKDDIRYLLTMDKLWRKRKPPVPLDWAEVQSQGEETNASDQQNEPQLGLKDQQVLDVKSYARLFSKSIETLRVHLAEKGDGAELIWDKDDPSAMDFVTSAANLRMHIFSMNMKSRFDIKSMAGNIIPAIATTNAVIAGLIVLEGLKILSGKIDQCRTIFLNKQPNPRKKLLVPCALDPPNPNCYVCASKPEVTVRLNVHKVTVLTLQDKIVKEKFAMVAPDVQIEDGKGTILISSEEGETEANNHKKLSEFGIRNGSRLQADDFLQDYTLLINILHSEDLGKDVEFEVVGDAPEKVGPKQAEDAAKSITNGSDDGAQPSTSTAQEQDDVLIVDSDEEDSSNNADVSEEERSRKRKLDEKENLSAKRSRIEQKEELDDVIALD

[5] = biological target: T1, SUMO-activating enzyme (Homo sapiens); assay: Inhibition of SUMO E1 (unknown origin)-mediated RanGAP1 sumoylation at 100 uM by immunoblotting analysis; format: protein-complex assay
SUMO-activating enzyme [6] = biological target: T2, SUMO-activating enzyme; assay: (§1) Inhibition of SUMO E1 (unknown origin)-mediated RanGAP1 sumoylation by immunoblotting analysis; format: protein-complex assay
[7] = biological target: T1, SUMO-activating enzyme (Homo sapiens); assay: as §1; format: protein-complex assay
[8] = biological target: T1, SUMO-activating enzyme (Homo sapiens); assay: Inhibition of SUMO E1 (unknown origin)-mediated RanGAP1 sumoylation at < 30 uM by immunoblotting analysis; format: protein-complex assay

Structure (SMILES)	inhibition [1]	logP [2]	Papp [3] [×10⁻⁶ cm/s]	IC50 (SUMO-activating enzyme [4]) [µM]	inhibition [5]	IC50 (SUMO-activating enzyme [6]) [µM]	inhibition [7]	inhibition [8]
CCCCCC/C=C\CCCCCCCc1cccc(O)c1C(=O)O	Active	–	–	–	–	–	–	–
Cc1cccc(NC(=O)Nc2ccc(Cc3ccc(NC(=O)Nc4cccc(C)c4)cc3)cc2)c1	–	4.8	35.4	14.4	–	–	–	–
O=C(Nc1ccc(OCc2ccccc2)cc1)Nc1ccc(Oc2ncnc3cc(Cl)ccc23)nc1	–	–	–	–	Active	35.4	Dose-dependent effect	–
O=C(Nc1ccc(Oc2ncnc3cc(Cl)ccc23)nc1)Nc1cccc(C(F)(F)F)c1	–	4.5	66.2	–	Active	35.6	Dose-dependent effect	inactive
COc1ccc(NC(=O)Nc2ccc(Oc3ncnc4cc(Cl)ccc34)nc2)cc1OC1CCCC1	Active	–	–	–	Active	13.4	Dose-dependent effect	–
O=C(Nc1ccc(F)cc1)Nc1ccc(Oc2ncnc3cc(Cl)ccc23)nc1	–	–	–	–	Active	73	Dose-dependent effect	–
O=C(Nc1ccccc1)Nc1ccc(Oc2ncnc3cc(Cl)ccc23)nc1	–	–	–	–	Active	57.3	Dose-dependent effect	–
COc1ccc(NC(=O)Nc2ccc(Cc3ccc(NC(=O)Nc4ccc(OC)cc4)cc3)cc2)cc1	–	4.4	35.3	11.7	–	–	–	–
N#Cc1ccc(NC(=O)Nc2ccc(Cc3ccc(NC(=O)Nc4ccc(C#N)cc4)cc3)cc2)cc1	–	2.8	1.52	11.1	–	–	–	–
